Data from patent publication US11939377B2, “Affinity matured CD22-specific monoclonal antibody and uses thereof” (The U.S.A., as represented by the Secretary, Department of …, priority 2018, dated 2024).

Key:
[1] = tested on: KOPN8 and SEM cell lines; experiment: RNA sequencing of Bryostatin 1-treated ALL cell lines; assay type: cell-based, human
Method: FIGS. 4A-4E: (FIGS. 4A-4B) KOPN8 or SEM cell lines were exposed to Bryostatin 1 for 16, 24, 48, or 72 hours. RNA was extracted from cells and analyzed using RNAseq. (FIGS. 4C-4E) Cell lines were co-incubated with 1 ng/ml of Bryostatin 1 for 24 hours. […] IL-2 (FIG. 4C), IFN-γ (FIG. 4D), and granzyme B (FIG. 4E) were measured by ELISA from cell culture supernatants. Statistical significance was calculated using an unpaired t-test (**** p<0.0001, *** p<0.0002, ** p<0.0021, * p<0.0332).
Sixteen RNA-seq samples were pooled and sequenced on one NextSeq high output run using Illumina TruSeq Poly A RNA Kit v3 with paired end sequencing. All samples had greater than 30 million pass filter reads with a base call quality above 95% of bases with Q30 and above. Reads of the samples were trimmed for adapters and low-quality bases using Trimmomatic software before alignment with the reference genome Human—hg19 and the annotated transcripts using STAR. The mapping quality statistics were calculated using Picard software and library complexity was measured in terms of unique fragments in the mapped reads using Picard's MarkDuplicate utility. The Partek Flow informatics pipeline was used to generate fold change and differentially expressed gene data as well as for data visualization. Gene set enrichment analysis (GSEA) of the differentially expressed genes was performed as previously described and using standard parameters.

[2] = tested on: CD22 expression on ALL and DLBCL cell lines (Nalm6, Kopn8, SEM, Pfeiffer, Toledo, PDX); experiment: CD22 expression on leukemia/lymphoma cells by flow cytometry after drug exposure in vitro; assay type: cell-based, human
Method: FIGS. 3A-3D: (FIG. 3A) Four cell lines (Nalm6, Kopn8, Pfieffer and Toldeo) were co-incubated with 1 ng/ml Bryostatin 1 for 24 hours and analyzed using flow cytometry one day after Bryostatin 1 exposure. Site density was analyzed using standardized Quantibrite-PE beads. (FIG. 3B) Cell lines were co-incubated with 1 ng/ml Bryostatin 1 for 24 hours, washed, and analyzed using flow cytometry at 1 and 7 days after Bryostatin 1 exposure. Fold change was calculated based on site density: (Cell line Bryostatin 1—Cell line DMSO)/Cell line DMSO. (FIG. 3C) NSG mice were injected with 1×10^6 GPF-positive Nalm6 leukemia cells on Day 0. Bryostatin 1 was administered at 0.8 μg/kg on Day 3. Mice were sacrificed 7 and 12 days after Bryostatin 1 injection and CD22 was evaluated by flow cytometry. (FIG. 3D) CD22-low relapse PDX cell line was cultured in vitro with 1 nmol/L Bryostatin 1 for 24 hours and measured for CD22 expression using CD22 antibody.
FIGS. 10A-10E: (FIG. 10A) Three cell lines (Toldeo, Kopn8 and Nalm6) were co-incubated with Bryostatin 1 at varying concentrations for 24 hours. At 24 hours, cells were collected for protein kinase C (PKC)-βII isoform analysis by western blot. (FIG. 10B) KOPN8 or SEM cell lines were exposed to Bryostatin 1 for 16, 24, 48 or 72 hours. RNA was extracted from cells and analyzed using RNAseq. (FIG. 10C) Immunofluorescent staining of CD22 was conducted through permeabilization followed by staining of CD22. (FIG. 10D) Four cell lines were co-incubated with various combinations of Enzastaurin (10 μM), Staurosporine (100 μM), or Bryostatin 1 (1 nM) for 24 hours. CD22 expression was assessed using flow cytometry. MFI fold change=CD22 MFI^Bryostatin1/CD22 MFI^DMSO. (FIG. 10E) Cell lines were co-incubated with 1 nM Bryostatin 1 for 24 hours and measured for CD22 expression using CD22-PE antibody. MFI fold change=CD22 MFI^Bryostatin 1/CD22 MFI^DMSO.
FIG. 11: CD22^lo or parental Nalm6 cell lines were exposed to 1 ng/ml Bryostatin 1 for 24 hours. CD22 expression was assessed using flow cytometry.
For all in vitro experiments and tumor/CAR pretreatment prior to intravenous injection, Bryostatin 1 was administered to cells at a concentration of 1 ng/mL. Dimethyl sulfoxide (DMSO) vehicle control was administered to control-treated cells at an equal volume. Prior to co-culture or intravenous injection, Bryostatin 1- and DMSO-treated cells were washed 3x in sterile PBS. For all in vivo experiments, Bryostatin 1 was diluted in PBS and administered via intraperitoneal injection at a dose of 40 μg/kg (1 μg/25 g mouse). For control-treated groups, an equal volume of DMSO was diluted in PBS and administered in the same manner
FACS analysis of cell surface CAR and protein expression was performed using an LSR II Fortessa flow cytometer (BD Biosciences). CD22-CAR was detected by incubation with 22-Fc (R&D Systems), followed by incubation with human IgG-specific PE-F(ab)2 (Thermo Fisher Scientific). The following human monoclonal antibodies were used for detection of cell surface proteins: CD22-APC, CD22-PE, CD19-Pacific Blue, CD45-PerCP/Cy5.5, CD3-APC/Cy7, PD1-PE/Cy7, LAG3-APC, TIM3-Pacific Blue, CD8-APC, CD8-PE/Cy7, CD45RA-APC, CD45RO-PE/Cy7, CCR7-Pacific Blue, CD4-Pacific Blue, CD69-APC (all from BioLegend). CD22 site density was determined using QuantiBrite-PE beads (BD Biosciences) using methods previously described (Jasper et al., Cytometry B Clin Cytom 80(2):83-90, 2011). Dead cells were identified using eFluor 506 fixable viability dye (Thermo Fisher Scientific). GFP-expressing leukemia cells were identified through the FITC channel.

[3] = tested on: CD22 expression on ALL and DLBCL cell lines (Nalm6, Kopn8, SEM, Pfeiffer, Toledo, PDX); settings: Biberacher et al. 2012; cited from earlier work

CCC/C=C/C=C/C(=O)O[C@H]1/C(=C/C(=O)OC)C[C@H]2C[C@H]([C@@H](C)O)OC(=O)C[C@H](O)C[C@@H]3C[C@H](OC(C)=O)C(C)(C)[C@](O)(C[C@@H]4C/C(=C/C(=O)OC)C[C@H](/C=C/C(C)(C)[C@]1(O)O2)O4)O3 [Bryostatin 1]
genes with 2-fold increased expression versus control ([1]; KOPN8): 756 genes | genes with a greater than 2-fold change ([1]; KOPN8, 24 hours): 1524 genes | CD22 mRNA over the course of treatment ([1]; KOPN8 and SEM, 16, 24, 48, 72 hours): Neither cell line showed changes | genes with a 2-fold change ([1]; SEM): only one gene | persistence of increased CD22 expression following removal of drug ([2]; 24 hours exposure, washed, analyzed at 1 and 7 days): persisted for a week | CD22 expression on CD22^lo leukemia cells following exposure ([2]; CD22^lo Nalm6, 1 ng/ml, 24 hours): did not demonstrate an increase | CD22 expression (MFI fold change) ([2]; KOPN8 and SEM, 1 nM, 24 hours): robust upregulation | CD22 on CD22-low relapse patient-derived ALL xenograft ([2]; PDX cell line cultured in vitro, 1 nmol/L, 24 hours): upregulated | CD22 expression upon exposure ([2]; all four cell lines (two pre-B ALL, two DLBCL), 1 ng/ml, 24 hours): significant increase | CD22 expression on chronic lymphocytic leukemia (CLL) [3]: increase CD22 expression
